Results on six molecules are retold here after EP4177246A1, “FUSED OXAZEPINES AS INHIBITORS OF PEROXIREDOXINS” (Centro Atlántico del Medicamento, SA, priority 2021, dated 2023).

The test system of one assay is PANC-1. The assay is described as follows: MTT cell viability assay, PANC-1 cells. The class given is cell-based. Conditions: Homo sapiens, 48 h drug exposure. On the procedure:
PANC-1 [American Type Culture Collection (ATCC) reference number CRL-1469]. This a human cancer cell line derived from the pancreas of a person.
(§1) Cell viability was assayed by measuring the mitochondrial reduction of the tetrazolium salt 3-(4,5-methyltiazol-2yl)-2,5diphenyl-tetrazolium bromide] (MTT) (Applichen; A2231,0010) [Mosmann T. J Immunol Methods. 1983 16;65(1-2):55-63 (ref. 36); Chuan Y-C et al 2010. Oncogene. 29 (10), 1531-1542 (ref. 37)]. Cells were seeded in 96-well plates in medium (either RPMI, DMEM or McCoys depending on the recommendations from the ATCC) supplemented with 10% FBS (Lonza Cat. N°: 14-502F), 2mM L-Glut (Lonza Cat. N°: BE17-605E) and 100U/ml PEST (Lonza Cat. N°: DE17-605E) at a cell density of 1000-5000 cells/well (96 well plate). Cells were seeded at a density according to their exponential growth phase (normally 1000 to 5000/well). The cells were cultured at 37 °C in the dark in air containing 5% CO2. After 24h either vehicle (0.05% DMSO) or drug were added to culture medium at the indicated concentrations (10 to 0,01microM). After another 48 h, MTT (0.3 mg/ml) was added to cells, followed by incubation for 2-4h at 37 °C in the dark. The medium was then removed and the precipitated formazan was solubilized by the addition of DMSO (200 µL).
(§2) The optical density was measured at 595 nm with the iMark Microplate Reader (BioRad, USA). Data was expressed as percent growth above the level in controls and the results in figures were plotted as means ± SEM of each test point from 3 replicates.
(§3) Statistical analysis. The concentration of drug that provokes 50% reduction of cell viability (IC50) was determined by using non-linear regression analysis and data were fitted to a log concentration vs normalized response curve in GraphPad software v5 (San Diego, CA).

In a further assay the test system is HEL 92.1.7. The assay is described as follows: MTT cell viability assay, HEL cells. The format is cell-based. To be noted: Homo sapiens, 48 h drug exposure. In a few lines: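 Human erythroleukemia HEL 92.1.7 cells, 1000-5000 cells/well in 10% FBS medium, treated 24 h after seeding with compound (10 to 0,01microM) or 0.05% DMSO for 48 h. MTT (0.3 mg/ml) 2-4h at 37 °C, OD 595 nm; IC50 by non-linear regression of log concentration vs normalized response, 3 replicates.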
(Formazan colour is commonly taken as a measure of viable cells.)

The next assay relates to DU-145. The assay is described as follows: MTT cell viability assay, DU-145 cells. The class given is cell-based. Conditions: Homo sapiens, 48 h drug exposure. The protocol: DU-145 [American Type Culture Collection (ATCC) reference number HTB-81]. This a human prostate cancer cell line derived from a metastatic site (brain) of a person.
as §1, §2, §3

The test system of a further assay is MCF-7. Briefly: MTT cell viability assay, MCF-7 cells. The format is cell-based. To be noted: Homo sapiens, MCF7, 48 h drug exposure. On the procedure: as §1, §2, §3
The next assay has as its system MDA-MB-231. Briefly: MTT cell viability assay, MDA-MB-231 cells. The format is cell-based, human. To be noted: Homo sapiens, 48 h drug exposure. Put shortly:
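MDA-MB-231 cells seeded in FBS-supplemented medium, treated after 24 h with compound (10 to 0,01 µM; vehicle 0.05% DMSO) for 48 h at 37 °C. MTT (0.3 mg/ml) added for 2-4 h, formazan dissolved in DMSO, OD read at 595 nm. IC50 from non-linear regression of log concentration vs normalized response.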

Another assay has as its system K562. The assay is described as follows: MTT cell viability assay, K562 cells. The class given is cell-based. Conditions: Homo sapiens, 48 h drug exposure. In a few lines: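 Human CML-derived K562 cells seeded at 1000-5000/well with 10% FBS, treated after 24 h with compound (10 to 0,01 µM) or 0.05% DMSO vehicle for 48 h. MTT (0.3 mg/ml) added 2-4 h at 37 °C, formazan dissolved in DMSO, OD 595 nm; IC50 from non-linear regression, 3 replicates.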

The structures appear in SMILES notation.

One may read the IC50 as the midpoint of a concentration-inhibition curve. A high value points to lower potency. Consider `N#Cc1ccc(N2Cc3ccccc3OC3=C2C(=O)c2c(O)ccc(O)c2C3=O)cc1` [Compound 8, 4-(7,10-dihydroxy-6,11-dioxobenzo[f]naphtho[2,3-b][1,4]oxazepin-12(6H,11H,13H)-yl)benzonitrile], for which the IC50 is 0.32 µM in the assay with PANC-1; 0.1 µM in the assay on HEL 92.1.7; 6.04 µM in the assay on DU-145; 2.59 µM in the assay on MCF-7; 0.36 µM with MDA-MB-231; 0.23 µM in the assay with K562.

`NS(=O)(=O)c1ccc(N2Cc3ccccc3OC3=C2C(=O)c2c(O)ccc(O)c2C3=O)cc1` [Compound 40, 4-(7,10-dihydroxy-6,11-dioxo-6,11-dihydrobenzo[f]naphtho[2,3-b][1,4]oxazepin-12(13H)-yl)benzenesulfonamide]: the IC50 with PANC-1 came out at 0.63 µM; in the assay with HEL 92.1.7, 0.21 µM; in the assay on DU-145 it was 6.13 µM; in the assay on MCF-7, 2.52 µM; with MDA-MB-231, 1.96 µM; in the assay on K562 it was 0.59 µM.

With `NC(=O)c1cccc(N2Cc3ccccc3OC3=C2C(=O)c2c(O)ccc(O)c2C3=O)c1` [Compound 54, 3-(7,10-dihydroxy-6,11-dioxo-6,11-dihydrobenzo[f]naphtho[2,3-b][1,4]oxazepin-12(13H)-yl)benzamide], the IC50 with PANC-1 is 0.38 µM; with HEL 92.1.7, 0.09 µM; in the assay on DU-145, 3.41 µM; in the assay on MCF-7, 1.28 µM; in the assay with MDA-MB-231, 0.19 µM; in the assay with K562 it was 0.07 µM.

In the case of `O=C1C2=C(C(=O)c3c(O)ccc(O)c31)N(c1ccc(N3CCOCC3)nc1)Cc1ccccc1O2` [Compound 59], the IC50 with PANC-1 was found to be 0.28 µM; in the assay with HEL 92.1.7 it was 0.06 µM; with DU-145, 0.54 µM; in the assay with MCF-7, 0.72 µM; in the assay with MDA-MB-231, 0.21 µM; in the assay on K562 it was 0.05 µM.

For `CN(C)c1ccc(N2Cc3ccccc3OC3=C2C(=O)c2c(O)ccc(O)c2C3=O)cn1` [Compound 62, 12-(6-(dimethylamino)pyridin-3-yl)-7,10-dihydroxy-12,13-dihydrobenzo[f]naphtho[2,3-b][1,4]oxazepine-6,11-dione], the IC50 with PANC-1 is 1.55 µM; with HEL 92.1.7 it was 0.07 µM; in the assay with DU-145, 1.32 µM; in the assay on MCF-7 it was 3 µM; in the assay with MDA-MB-231, 0.27 µM; in the assay on K562, 0.1 µM.

For the molecule `CN1CCN(c2ccc(N3Cc4ccccc4OC4=C3C(=O)c3c(O)ccc(O)c3C4=O)cn2)CC1` [Compound 81, 7,10-dihydroxy-12-(6-(4-methylpiperazin-1-yl)pyridin-3-yl)-12,13-dihydrobenzo[f]naphtho[2,3-b][1,4]oxazepine-6,11-dione], the IC50 was 0.26 µM in the assay with PANC-1; 0.05 µM in the assay with HEL 92.1.7; 0.82 µM with DU-145; 0.91 µM in the assay with MCF-7; 0.32 µM in the assay on MDA-MB-231; 0.02 µM in the assay with K562.
